Results: patent publication US20080096894A1, “Anti-Bacterial Compounds” (ASTON UNIVERSITY, priority 2005, published 2008)

Legend:
[1] = test system: C. difficile (NCTC 11204 and thirty-two clinical isolates); test: Minimum Bactericidal Concentration (MBC) against C. difficile, 99.9% kill; format: cell-based, Clostridium difficile
Experimental: (§1) Compounds 4PYcq and 4PYOfi were screened against one NCTC strain and thirty-two clinical isolates of Clostridium difficile as described below.
(§2) The antimicrobial compounds were prepared by adding 5.12 mg of each compound to 1 ml of DMSO. From each solution 100 μl was then aseptically transferred into 1 ml of sterile distilled water to give a concentration of 512 μg/ml. 100 μl of each diluted compound was then added to the first well of a sterile 96-well microliter plate. Serial dilutions were performed to give a concentration range spanning from 0 to 512 μg/ml of each compound. The microtiter plate containing the antimicrobials was left to equilibrate in an anaerobic cabinet for 3 hours before the addition of C. difficile cells. An overnight culture of C. difficile (NCTC 11204) was standardized to an OD^600 of 0.04 (approximately 10^6 CFU/ml), using Wilkins Chalgren broth and was vortexed for 60 seconds to ensure there was a uniform suspension. 100 μl of standardized culture was then added to each well of the microtiter plate, containing the equilibrated antimicrobials. The final concentrations of the antimicrobials in the wells therefore ranged from […] and the concentration of the culture was 10^5 CFU/ml in each well. The microtiter plate was incubated at 37° C., for 48 hours under anaerobic conditions. The MIC was determined as the lowest concentration of antimicrobial agent inhibiting the total growth of C. difficile cells. After incubation, the total solution from each well was aseptically spread onto a separate Wilkins chalgren agar plate. Plates were incubated for 48 hours, at 37° C., under anaerobic conditions. The number of colonies on each plate was counted after incubation and the MBC was determined as the lowest concentration of the antimicrobial agent at which 99.9% of organisms in the original inoculum were killed.

[2] = test system: Propionibacterium acnes; test: MIC against Propionibacterium acnes, microtitre double dilution in BHI; format: cell-based
Experimental: Compounds 4PYcq and 4PYOfi were screened against one NCTC stain and seven clinical isolates of Propionibacterium acnes as described below.
Bacterial strains of Propionibacterium acnes, stored on beads at −20° C., were plated onto Brain heart infusion (BHI) agar plates. The cultures were incubated anaerobically for 4 days at 37° C.
Bacterial suspensions were prepared by diluting bacterial suspensions with BHI to obtain bacterial concentrations approximately 2×10^6 cfu/ml.
The test antimicrobial compounds were prepared by diluting the compound with appropriate nutrient broth to obtain correct stock solution. 50 μl of BHI were aliquoted onto the wells of the round-bottomed microtitre plate. 50 μl of the antimicrobial compounds were added onto the wells in the first column of the plate and several serial double dilutions were performed along the wells on each row. Following the series of double dilutions of the test compound the bacterial suspension were added onto each well except on the last column which served as a negative control. The lowest concentration of the test compound which inhibited bacterial growth was regarded as MIC of the compound.

[3] = test system: C. difficile (NCTC 11204 and thirty-two clinical isolates); test: Minimum Inhibitory Concentration (MIC) against C. difficile, microtiter plate, anaerobic, 48 hours; format: cell-based, Clostridium difficile
Experimental: as §1, §2

[4] = test system: Acinetobater spp.; test: activity against Acinetobacter spp.; format: cell-based; settings: Gram-negative bacterium
[5] = Clostridium difficile Isolate 1
[6] = Clostridium difficile Isolate 2
[7] = Clostridium difficile Isolate 3
[8] = Clostridium difficile Isolate 4
[9] = Clostridium difficile Isolate 5
[10] = Clostridium difficile Isolate 6
[11] = Clostridium difficile Isolate 7
[12] = Clostridium difficile Isolate 8
[13] = Clostridium difficile Isolate 9
[14] = Clostridium difficile Isolate 10
[15] = Clostridium difficile Isolate 11
[16] = Clostridium difficile Isolate 12
[17] = Clostridium difficile Isolate 13
[18] = Clostridium difficile Isolate 14
[19] = Clostridium difficile Isolate 15
[20] = Clostridium difficile Isolate 16
[21] = Clostridium difficile Isolate 17
[22] = Clostridium difficile Isolate 18
[23] = Clostridium difficile Isolate 19
[24] = Clostridium difficile Isolate 20
[25] = Clostridium difficile Isolate 21
[26] = Clostridium difficile Isolate 22
[27] = Clostridium difficile Isolate 23
[28] = Clostridium difficile Isolate 24
[29] = Clostridium difficile Isolate 25
[30] = Clostridium difficile Isolate 26
[31] = Clostridium difficile Isolate 27
[32] = Clostridium difficile Isolate 28
[33] = Clostridium difficile Isolate 29
[34] = Clostridium difficile Isolate 30
[35] = Clostridium difficile Isolate 31
[36] = Clostridium difficile Isolate 32
[37] = Clostridium difficile NCTC 11204

In the case of `NC(=NN=Cc1ccc([N+](=O)[O-])o1)c1cc[n+]([O-])cc1` (mixture of isomers) [Compound 4PYOfi], the MBC [1, 5] is reported as 32 to 64 µg/mL, the MBC [1, 6] is reported as 16 to 32 µg/mL and the MBC [1, 7] is reported as 8 to 16 µg/mL. It also gave an MBC [1, 8] of 64 to 128 µg/mL, an MBC [1, 9] of 2 to 4 µg/mL and an MBC [1, 10] of 16 to 32 µg/mL. For the same compound, the MBC [1, 11] was 32 to 64 µg/mL, the MBC [1, 12] was 8 to 16 µg/mL and the MBC [1, 13] was 128 to 256 µg/mL. It also gave an MBC [1, 14] of 32 to 64 µg/mL, an MBC [1, 15] of 4 to 8 µg/mL and an MBC [1, 16] of 4 to 8 µg/mL. The MBC [1, 17] was 128 to 256 µg/mL, the MBC [1, 18] was 4 to 8 µg/mL and the MBC [1, 19] was 8 to 16 µg/mL. The MBC [1, 20] was 4 to 8 µg/mL, the MBC [1, 21] was 2 to 4 µg/mL and the MBC [1, 22] was 1 to 2 µg/mL. It also gave an MBC [1, 23] of 16 to 32 µg/mL, an MBC [1, 24] of 4 to 8 µg/mL and an MBC [1, 25] of 16 to 32 µg/mL. The MBC [1, 26] was 4 to 8 µg/mL, the MBC [1, 27] was 2 to 4 µg/mL and the MBC [1, 28] was 4 to 8 µg/mL. For the same compound, the MBC [1, 29] was 8 to 16 µg/mL, the MBC [1, 30] was 2 to 4 µg/mL and the MBC [1, 31] was 16 to 32 µg/mL. The MBC [1, 32] was 16 to 32 µg/mL, the MBC [1, 33] was 8 to 16 µg/mL and the MBC [1, 34] was 16 to 32 µg/mL. The MBC [1, 35] was 8 to 16 µg/mL, the MBC [1, 36] was 8 to 16 µg/mL and the MBC [1, 37] was 2 to 4 µg/mL. For the same compound, the MIC ([2]; P. acnes Isolate 1) was 8 to 16 µg/mL, the MIC ([2]; P. acnes Isolate 2) was 8 to 16 µg/mL and the MIC ([2]; P. acnes Isolate 3) was 8 to 16 µg/mL. For the same compound, the MIC ([2]; P. acnes Isolate 4) was 8 to 16 µg/mL, the MIC ([2]; P. acnes Isolate 5) was 16 to 32 µg/mL and the MIC ([2]; P. acnes Isolate 6) was 8 to 16 µg/mL. It also gave an MIC ([2]; P. acnes Isolate 7) of 8 to 16 µg/mL, an MIC ([2]; P. acnes NCTC 737) of 16 to 32 µg/mL and an MIC [3, 5] of 16 to 32 µg/mL. It also gave an MIC [3, 6] of 4 to 8 µg/mL, an MIC [3, 7] of 8 to 16 µg/mL and an MIC [3, 8] of 64 to 128 µg/mL. For the same compound, the MIC [3, 9] was 2 to 4 µg/mL, the MIC [3, 10] was 16 to 32 µg/mL and the MIC [3, 11] was 32 to 64 µg/mL. The MIC [3, 12] was 2 to 4 µg/mL, the MIC [3, 13] was 128 to 256 µg/mL and the MIC [3, 14] was 32 to 64 µg/mL. The MIC [3, 15] was 2 to 4 µg/mL, the MIC [3, 16] was 2 to 4 µg/mL and the MIC [3, 17] was 64 to 128 µg/mL. The MIC [3, 18] was 2 to 4 µg/mL, the MIC [3, 19] was 2 to 4 µg/mL and the MIC [3, 20] was 2 to 4 µg/mL. For the same compound, the MIC [3, 21] was 1 to 2 µg/mL, the MIC [3, 22] was 1 to 2 µg/mL and the MIC [3, 23] was 8 to 16 µg/mL. For the same compound, the MIC [3, 24] was 2 to 4 µg/mL, the MIC [3, 25] was 16 to 32 µg/mL and the MIC [3, 26] was 4 to 8 µg/mL. It also gave an MIC [3, 27] of 2 to 4 µg/mL, an MIC [3, 28] of 4 to 8 µg/mL and an MIC [3, 29] of 2 to 4 µg/mL. The MIC [3, 30] was 2 to 4 µg/mL, the MIC [3, 31] was 16 to 32 µg/mL and the MIC [3, 32] was 16 to 32 µg/mL. For the same compound, the MIC [3, 33] was 4 to 8 µg/mL, the MIC [3, 34] was 16 to 32 µg/mL and the MIC [3, 35] was 4 to 8 µg/mL. For the same compound, the MIC [3, 36] was 4 to 8 µg/mL, the MIC [3, 37] was 2 to 4 µg/mL and the “activity against Acinetobater spp. (in words)” value [4] was “inactive”.
